Measurements published in patent US8030498B2, “Benzoylpyrazole compounds and herbicides containing them” (Ishihara Sangyo Kaisha, Ltd., priority 2005, dated 2011).

Assays:
[1] = test system: barnyardgrass (Echinochloa crus-galli L.); experiment: Test Example 1: foliar treatment, growth inhibition rate, barnyardgrass; assay type: in vivo; details: 31 g/ha active ingredient, visually observed 17th to 23rd day after application
Summary of the method: (§1)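 Potted upland soil; compounds as wettable powders or emulsifiable concentrates diluted in water at 500 L/ha plus 0.1 vol % spreader, foliar-sprayed at defined leaf stages (rice 1.0–2.5, wheat 1.7–3.4, corn 2.0–3.5, greenfoxtail 1.0–3.0). Growth inhibition (0–100%) scored visually 17–23 days after application.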

[2] = test system: crabgrass (Digitaria sanguinalis L.); experiment: Test Example 1: foliar treatment, growth inhibition rate, crabgrass; assay type: in vivo; details: 31 g/ha active ingredient, visually observed 17th to 23rd day after application
Summary of the method: (§2)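 Visual scoring of growth inhibition, 0% (untreated) to 100% (complete kill), on days 17–23 following post-emergence spray of formulated compound in water (500 L/ha, 0.1 vol % spreader); plants treated at set leaf stages, e.g. corn 2.0–3.5, wheat 1.7–3.4.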

[3] = test system: greenfoxtail (Setaria viridis L.); experiment: Test Example 1: foliar treatment, growth inhibition rate, greenfoxtail; assay type: in vivo; details: 31 g/ha active ingredient, visually observed 17th to 23rd day after application
Summary of the method: (§3)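 Visual growth inhibition rating, 0% (as untreated) to 100% (complete kill), taken 17–23 d after foliar spray. Compound was formulated as wettable powder or EC, diluted to 500 L/ha water with 0.1 vol % agricultural spreader, and applied to pot-grown seedlings of corn (2.0–3.5 leaf), greenfoxtail (1.0–3.0), rice (1.0–2.5) and wheat (1.7–3.4).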

[4] = test system: redroot pigweed (Amaranthus retroflexus L.); experiment: Test Example 1: foliar treatment, growth inhibition rate, redroot pigweed; assay type: in vivo; details: 31 g/ha active ingredient, visually observed 17th to 23rd day after application
Summary of the method: as §2

[5] = test system: prickly sida (Sida spinosa L.); experiment: Test Example 1: foliar treatment, growth inhibition rate, prickly sida; assay type: in vivo; details: 31 g/ha active ingredient, visually observed 17th to 23rd day after application
Summary of the method: as §2

[6] = test system: velvetleaf (Abutilon theophrasti MEDIC.); experiment: Test Example 1: foliar treatment, growth inhibition rate, velvetleaf; assay type: in vivo; details: 31 g/ha active ingredient, visually observed 17th to 23rd day after application
Summary of the method: as §1

rice (Oryza sativa L.) = experiment: Test Example 1: foliar treatment, growth inhibition rate, rice; assay type: in vivo; details: 31 g/ha active ingredient, visually observed 17th to 23rd day after application
Summary of the method: as §3

wheat (Triticum spp.) = experiment: Test Example 1: foliar treatment, growth inhibition rate, wheat; assay type: in vivo; details: 31 g/ha active ingredient, visually observed 17th to 23rd day after application
Summary of the method: as §3

corn (Zea mays L.) = experiment: Test Example 1: foliar treatment, growth inhibition rate, corn; assay type: in vivo; details: 31 g/ha active ingredient, visually observed 17th to 23rd day after application
Summary of the method: as §3

[7] = test system: soybean (Glycine max Merr.); experiment: Test Example 1: foliar treatment, growth inhibition rate, soybean; assay type: in vivo; details: 31 g/ha active ingredient, visually observed 17th to 23rd day after application
Summary of the method: as §2

barnyardgrass = experiment: Test Example 2: soil application on the day after sowing, growth inhibition rate, barnyardgrass; assay type: in vivo, Echinochloa crus-galli L.; details: 250 g/ha active ingredient, observed on 19th to 24th day
Summary of the method: (§4)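 Upland soil pots sown with crop and weed seeds; next day wettable powder or emulsifiable concentrate at prescribed active-ingredient amounts, diluted to 500 L/ha water, sprayed onto soil. Growth inhibition scored visually 19–24 days later, 0 (as untreated) to 100% (complete kill).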

crabgrass = experiment: Test Example 2: soil application on the day after sowing, growth inhibition rate, crabgrass; assay type: in vivo, Digitaria sanguinalis L.; details: 250 g/ha active ingredient, observed on 19th to 24th day
Summary of the method: as §4

greenfoxtail = experiment: Test Example 2: soil application on the day after sowing, growth inhibition rate, greenfoxtail; assay type: in vivo, Setaria viridis L.; details: 250 g/ha active ingredient, observed on 19th to 24th day
Summary of the method: as §4

redroot pigweed = experiment: Test Example 2: soil application on the day after sowing, growth inhibition rate, redroot pigweed; assay type: in vivo, Amaranthus retroflexus L.; details: 250 g/ha active ingredient, observed on 19th to 24th day
Summary of the method: as §4

prickly sida = experiment: Test Example 2: soil application on the day after sowing, growth inhibition rate, prickly sida; assay type: in vivo, Sida spinosa L.; details: 250 g/ha active ingredient, observed on 19th to 24th day
Summary of the method: as §4

velvetleaf = experiment: Test Example 2: soil application on the day after sowing, growth inhibition rate, velvetleaf; assay type: in vivo, Abutilon theophrasti MEDIC.; details: 250 g/ha active ingredient, observed on 19th to 24th day
Summary of the method: as §4

rice = experiment: Test Example 2: soil application on the day after sowing, growth inhibition rate, rice; assay type: in vivo, Oryza sativa L.; details: 250 g/ha active ingredient, observed on 19th to 24th day
Summary of the method: as §4

wheat = experiment: Test Example 2: soil application on the day after sowing, growth inhibition rate, wheat; assay type: in vivo, Triticum spp.; details: 250 g/ha active ingredient, observed on 19th to 24th day
Summary of the method: as §4

corn = experiment: Test Example 2: soil application on the day after sowing, growth inhibition rate, corn; assay type: in vivo, Zea mays L.; details: 250 g/ha active ingredient, observed on 19th to 24th day
Summary of the method: as §4

soybean = experiment: Test Example 2: soil application on the day after sowing, growth inhibition rate, soybean; assay type: in vivo, Glycine max Merr.; details: 250 g/ha active ingredient, observed on 19th to 24th day
Summary of the method: as §4

Structure (SMILES) | Growth inhibition rate (%) redroot pigweed [4] [%] | Growth inhibition rate (%) Prickly sida [5] [%] | Growth inhibition rate (%) Soybean [7] [%] | Growth inhibition rate (%) Barnyardgrass [1] [%] | Growth inhibition rate (%) Crabgrass [2] [%] | Growth inhibition rate (%) Greenfoxtail [3] [%] | Growth inhibition rate (%) Velvetleaf [6] [%] | Growth inhibition rate (%) Rice (rice (Oryza sativa L.)) [%] | Growth inhibition rate (%) Wheat (wheat (Triticum spp.)) [%] | Growth inhibition rate (%) Corn (corn (Zea mays L.)) [%] | Growth inhibition rate (%) Barnyardgrass (barnyardgrass) [%] | Growth inhibition rate (%) Crabgrass (crabgrass) [%] | Growth inhibition rate (%) Greenfoxtail (greenfoxtail) [%] | Growth inhibition rate (%) redroot pigweed (redroot pigweed) [%] | Growth inhibition rate (%) Prickly sida (prickly sida) [%] | Growth inhibition rate (%) Velvetleaf (velvetleaf) [%] | Growth inhibition rate (%) Rice (rice) [%] | Growth inhibition rate (%) Wheat (wheat) [%] | Growth inhibition rate (%) Corn (corn) [%] | Growth inhibition rate (%) Soybean (soybean) [%] | other results
CCSC(=O)Oc1c(C(=O)c2ccc(S(C)(=O)=O)c(OC(F)F)c2C)cnn1C [Compound No. 38, 5-(ethylthio)carbonyloxy-1-methylpyrazol-4-yl 3-(difluoromethoxy)-2-methyl-4-(methylsulfonyl)phenyl ketone] | 20 | 40 | 70 |  |  |  |  |  |  |  |  |  |  |  |  |  |  |  |  |  | pest or weed control at 31 g/ha ([1]; Echinochloa crus-galli): 80%; pest or weed control at 31 g/ha ([2]; Digitaria sanguinalis): 0%; pest or weed control at 31 g/ha ([3]; Setaria viridis): 30%; pest or weed control at 31 g/ha ([6]; Abutilon theophrasti): 60%; pest or weed control at 31 g/ha (rice (Oryza sativa L.); Oryza sativa): 40%; pest or weed control at 31 g/ha (wheat (Triticum spp.); Triticum): 0%; pest or weed control at 31 g/ha (corn (Zea mays L.); Zea mays): 0%; inhibition at 250 g/ha (barnyardgrass; Echinochloa crus-galli): 90%; inhibition at 250 g/ha (crabgrass; Digitaria sanguinalis): 95%; inhibition at 250 g/ha (greenfoxtail; Setaria viridis): 70%; inhibition at 250 g/ha (redroot pigweed; Amaranthus retroflexus): 90%; inhibition at 250 g/ha (prickly sida; Sida spinosa): 70%; inhibition at 250 g/ha (velvetleaf; Abutilon theophrasti): 20%; inhibition at 250 g/ha (rice; Oryza sativa): 60%; inhibition at 250 g/ha (wheat; Triticum aestivum): 0%; inhibition at 250 g/ha (corn; Zea mays): 0%; inhibition at 250 g/ha (soybean; Glycine max): 0%
CCCCCCCc1c(S(C)(=O)=O)ccc(C(=O)c2cnn(C)c2OC(=O)SCC)c1C [compound 225] | 0 | 0 | 50 | 30 | 0 | 20 | 0 | 0 | 0 | 0 | 0 | 0 | 0 | 30 | 0 | 0 | 0 | 0 | 0 | 0 | 
COCCOc1c(S(C)(=O)=O)ccc(C(=O)c2cnn(C)c2OC(=O)SC(C)C)c1C [compound 207] | 100 | 60 | 100 | 95 | 95 | 100 | 100 | 70 | 0 | 0 | 100 | 100 | 100 | 100 | 60 | 100 | 98 | 0 | 0 | 20 | 
CCn1ncc(C(=O)c2ccc(S(C)(=O)=O)c(C(=O)OC)c2C)c1OC(=O)SCc1ccccc1 [compound 93] | 98 | 70 | 80 | 95 | 80 | 95 | 80 | 70 | 0 | 30 | 95 | 90 | 100 | 100 | 75 | 65 | 90 | 0 | 0 | 0 | 
COC(=O)c1c(S(C)(=O)=O)ccc(C(=O)c2cnn(C)c2OC(=O)SCc2ccccc2)c1C [compound 92] | 10 | 10 | 10 | 0 | 0 | 60 | 70 | 0 | 0 | 0 | 80 | 95 | 70 | 70 | 60 | 50 | 80 | 0 | 0 | 0 | 
COC(=O)c1c(S(C)(=O)=O)ccc(C(=O)c2cnn(C)c2OC(=O)SC)c1C [Compound No. 3] | 90 | 90 | 95 | 95 | 95 | 100 | 95 | 100 | 50 | 60 | 60 | 100 | 60 | 100 | 95 | 70 | 95 | 0 | 0 | 40 | 
CCCOc1c(S(C)(=O)=O)ccc(C(=O)c2cnn(CC)c2OC(=O)SCC)c1C [compound 67] | 95 | 60 | 90 | 95 | 98 | 100 | 90 | 60 | 10 | 10 | 60 | 70 | 40 | 50 | 70 | 60 | 60 | 0 | 0 | 20 | 
